Assay results reported in patent publication US11028066B2, “Inhibitors of lysine specific demethylase-1” (CELGENE QUANTICEL RESEARCH, INC., priority 2014, dated 2021).
pIC50: −log10 of the molar value.

Key:
[1] = molecular target: full-length human LSD1 (Homo sapiens (Human), UniProt O60341); assay: In vitro enzyme inhibition assay LSD-1 (TR-FRET); type: biochemical; details: H3K4me1-biotin peptide
In short: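 Demethylase activity of full-length human LSD1 was detected by TR-FRET after 1 hour incubation at room temperature. Excitation was at 320 nm, with emission at 615 nm and 665 nm. IC50 values were derived from the inhibition data.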

[2] = system: Kasumi-1; assay: Kasumi-1 AML cell line proliferation assay (Cell-MTS assay); type: cell-based; details: Homo sapiens, 168 hours incubation
Description: Colorimetric cellular assay to assess the ability of LSD-1 small molecule inhibitors to effect the proliferation of the established AML cancer cell line Kasumi-1.
This Cell-MTS assay is a 7-day plate based colorimetric assay which quantifies the amount of newly generated NADH in the presence and absence of test compound. These NADH levels are used as a proxy for the quantification of cancer cell proliferation.
The established cancer cell line Kasumi-1 with a verified p53 mutation were purchased from American Type Culture Collection (ATCC) and routinely passaged according to ATCC published protocols. For routine assay these cells were seeded at a density of 20,000 cells per 96-well. 24 hours after plating, cells received an 11 point dilution of test compound with final concentration ranges from 100 μM to 2.0 nM. Cells are incubated in the presence of compound for 168 hours at 37° C., 5% CO2. At the end of this compound incubation period, 80 μl of media is removed and 20 μL of CellTiter 96® AQueous Non-Radioactive Cell Proliferation Assay solution (Promega) is added. The cells are incubated until the OD490 is >0.6. IC50 values are calculated using the IDBS XLfit software package and include background subtracted OD490 values and normalization to DMSO controls.
Table 5 provides the Kasumi-1 cellular IC50 values of various substituted heterocyclic compounds disclosed herein.

[3] = system: THP-1 (AML) cells; assay: LSD1 CD11b cellular assay (flow cytometry); type: cell-based; details: Homo sapiens, THP-1, 96 h; CD11b expressing cells, 4 days incubation

Row | Compound | pIC50 [1] | pIC50 [3] | pIC50 [2]
1 | COc1ccc(-c2c(-c3ccc(C#N)cc3)nc(NC[C@H]3CCNC3)c(=O)n2C)cc1 [Example 31, 4-[3-(4-methoxyphenyl)-4-methyl-5-oxo-6-{[(3S)-pyrrolidin-3-ylmethyl]amino}-4,5-dihydropyrazin-2-yl]benzonitrile] | > 7.00 | > 7.00 | ≥ 7.00
2 | Cc1ccc(-c2c(-c3ccc(C#N)c(F)c3)nc(N3CCC(N)CC3)c(=O)n2CCCO)cc1 [Example 46, 4-[6-(4-aminopiperidyl)-4-(3-hydroxypropyl)-3-(4-methylphenyl)-5-oxo(4-hydropyrazin-2-yl)]-2-fluorobenzenecarbonitrile] | > 7.00 | > 7.00 | ≥ 7.00
3 | Cn1c(-c2ccc(C3CC3)cc2)c(-c2ccc(C#N)c(F)c2)cc(NC[C@H]2CCNC2)c1=O [Example 74, (S)-4-(2-(4-cyclopropylphenyl)-1-methyl-6-oxo-5-(pyrrolidin-3-ylmethylamino)-1,6-dihydropyridin-3-yl)-2-fluorobenzonitrile] | > 7.00 | > 7.00 | ≥ 7.00
4 | COc1ccc(-c2c(-c3ccc(C#N)c(F)c3)cc(N3CCC(N)CC3)c(=O)n2C)cc1F [Example 84, 4-[5-(4-aminopiperidin-1-yl)-2-(3-fluoro-4-methoxyphenyl)-1-methyl-6-oxopyridin-3-yl]-2-fluorobenzonitrile] | > 7.00 | > 7.00 | ≥ 7.00
5 | Cc1ccc(-c2c(-c3ccc(C#N)c(F)c3)cc(N3CCC(N)CC3)c(=O)n2C)cc1 [Example 76, 4-[5-(4-aminopiperidin-1-yl)-1-methyl-2-(4-methylphenyl)-6-oxopyridin-3-yl]-2-fluorobenzonitrile] | > 7.00 | > 7.00 | ≥ 7.00
6 | Cc1ccc(-c2c(-c3ccc(C#N)cc3)cc(N3CCC(N)CC3)c(=O)n2C)cc1 [Example 75, 4-[5-(4-aminopiperidin-1-yl)-1-methyl-2-(4-methylphenyl)-6-oxopyridin-3-yl]benzonitrile] | > 7.00 | > 7.00 | ≥ 7.00
7 | COc1ccc(-c2c(-c3ccc(C#N)cc3)cc(N3CCC(N)CC3)c(=O)n2C)cc1 [Example 77, 4-[5-(4-aminopiperidin-1-yl)-2-(4-methoxyphenyl)-1-methyl-6-oxopyridin-3-yl]benzonitrile] | > 7.00 | > 7.00 | ≥ 7.00
8 | COc1ccc(-c2c(-c3ccc(C#N)c(F)c3)nc(NC[C@H]3CCNC3)c(=O)n2C)cc1 [Example 55, 2-fluoro-4-{3-(4-methoxy-phenyl)-4-methyl-5-oxo-6-[((3S)-pyrrolidin-3-ylmethyl)-amino]-4,5-dihydro-pyrazin-2-yl}-benzonitrile] | > 7.00 | > 7.00 | ≥ 7.00
9 | COCCn1c(-c2ccc(C)cc2)c(-c2ccc(C#N)cc2)nc(N2CCC(N)CC2)c1=O [Example 36, 4-[6-(4-amino-piperidin-1-yl)-4-(2-methoxy-ethyl)-5-oxo-3-p-tolyl-4,5-dihydro-pyrazin-2-yl]-benzonitrile] | > 7.00 | > 7.00 | ≥ 7.00
10 | COc1ccc(-c2c(-c3ccc(C#N)c(F)c3)cc(NC[C@H]3CCNC3)c(=O)n2C)cc1 [Example 70, (S)-2-fluoro-4-(2-(4-methoxyphenyl)-1-methyl-6-oxo-5-(pyrrolidin-3-ylmethylamino)-1,6-dihydropyridin-3-yl)benzonitrile] | > 7.00 | > 7.00 | ≥ 7.00
11 | COc1ccc(-c2c(-c3ccc(C#N)nc3)cc(N3CCC(N)CC3)c(=O)n2C)cc1 [Example 68, 5-(5-(4-aminopiperidin-1-yl)-2-(4-methoxyphenyl)-1-methyl-6-oxo-1,6-dihydropyridin-3-yl)picolinonitrile] | > 7.00 | 6.00 to 7.00 | –
12 | N#Cc1ccc(-c2cn(CC3CCOCC3)c(=O)c(N3CCC(N)CC3)n2)cc1F [Example 15, 4-[6-(4-amino-piperidin-1-yl)-5-oxo-4-(tetrahydro-pyran-4-ylmethyl)-4,5-dihydro-pyrazin-2-yl]-2-fluoro-benzonitrile] | > 7.00 | 6.00 to 7.00 | –
13 | CCOc1ccc(-c2c(-c3ccc(C#N)c(F)c3)nc(NC[C@H]3CCNC3)c(=O)n2C)cc1 [Example 62, 4-{3-(4-ethoxy-phenyl)-4-methyl-5-oxo-6-[((3S)-pyrrolidin-3-ylmethyl)-amino]-4,5-dihydro-pyrazin-2-yl}-2-fluoro-benzonitrile] | > 7.00 | > 7.00 | –
14 | Cn1c(-c2ccc(C3CC3)cc2)c(-c2ccc(C#N)c(F)c2)nc(NC[C@H]2CCNC2)c1=O [Example 59, 4-{3-(4-cyclopropyl-phenyl)-4-methyl-5-oxo-6-[((3S)-pyrrolidin-3-ylmethyl)-amino]-4,5-dihydro-pyrazin-2-yl}-2-fluoro-benzonitrile] | > 7.00 | > 7.00 | –
15 | CCc1ccc(-c2c(-c3ccc(C#N)cc3)nc(N3CCC(N)CC3)c(=O)n2C)cc1 [Example 27, 4-[6-(4-aminopiperidin-1-yl)-3-(4-ethylphenyl)-4-methyl-5-oxo-4,5-dihydropyrazin-2-yl]benzonitrile] | > 7.00 | > 7.00 | –
16 | Cn1c(-c2ccc3c(c2)ncn3C)c(-c2ccc(C#N)c(F)c2)nc(N2CCC(N)CC2)c1=O [Example 60, 4-[6-(4-amino-piperidin-1-yl)-4-methyl-3-(1-methyl-1H-benzoimidazol-5-yl)-5-oxo-4,5-dihydro-pyrazin-2-yl]-2-fluoro-benzonitrile] | > 7.00 | > 7.00 | ≥ 7.00
17 | Cc1ccc(-c2c(-c3ccc(C#N)cc3)nc(NC[C@@H]3CCNC3)c(=O)n2C)cc1 [Example 18, 4-[4-methyl-3-(4-methylphenyl)-5-oxo-6-{[(3R)-pyrrolidin-3-ylmethyl]amino}-4,5-dihydropyrazin-2-yl]benzonitrile] | > 7.00 | > 7.00 | –

More lines, main results first:

Row | pIC50 [1] | pIC50 [3] | Compound | pIC50 [2]
18 | > 7.00 | 6.00 to 7.00 | CCc1ccc(-c2c(-c3ccc(C#N)cc3)nc(NC[C@H]3CCNC3)c(=O)n2C)cc1 [Example 28, 4-[3-(4-ethylphenyl)-4-methyl-5-oxo-6-{[(3S)-pyrrolidin-3-ylmethyl]amino}-4,5-dihydropyrazin-2-yl]benzonitrile] | ≥ 7.00
19 | > 7.00 | > 7.00 | COc1ccc(-c2c(-c3ccc(C#N)cc3)cc(N3CCC(N)CC3)c(=O)n2C)cc1F [Example 83, 4-[5-(4-aminopiperidin-1-yl)-2-(3-fluoro-4-methoxyphenyl)-1-methyl-6-oxopyridin-3-yl]benzonitrile] | ≥ 7.00
20 | > 7.00 | > 7.00 | Cc1ccc(-c2c(-c3ccc(C#N)c(F)c3)nc(N3CCC(N)CC3)c(=O)n2CCO)cc1 [Example 42, 4-[6-(4-amino-piperidin-1-yl)-4-(2-hydroxy-ethyl)-5-oxo-3-p-tolyl-4,5-dihydro-pyrazin-2-yl]-2-fluoro-benzonitrile] | ≥ 7.00
21 | > 7.00 | > 7.00 | Cc1ccc(-c2c(-c3ccc(C#N)c(F)c3)nc(NC[C@H]3CCNC3)c(=O)n2CCO)cc1 [Example 44, 4-(6-{[((3S)-pyrrolidin-3-yl)methyl]amino}-4-(2-hydroxyethyl)-3-(4-methylphenyl)-5-oxo(4-hydropyrazin-2-yl))-2-fluorobenzenecarbonitrile] | ≥ 7.00
22 | > 7.00 | > 7.00 | Cc1ccc(-c2c(-c3ccc(C#N)cc3)nc(N3CCC(N)CC3)c(=O)n2CCCO)cc1 [Example 40, 4-[6-(4-amino-piperidin-1-yl)-4-(3-hydroxy-propyl)-5-oxo-3-p-tolyl-4,5-dihydro-pyrazin-2-yl]-benzonitrile] | ≥ 7.00
23 | > 7.00 | > 7.00 | Cn1c(-c2ccc(C3CC3)cc2)c(-c2ccc(C#N)cc2)nc(N2CCC(N)CC2)c1=O [Example 33, 4-[6-(4-aminopiperidin-1-yl)-3-(4-cyclopropylphenyl)-4-methyl-5-oxo-4,5-dihydropyrazin-2-yl]benzonitrile] | ≥ 7.00
24 | > 7.00 | > 7.00 | CN(C)c1ccc(-c2c(-c3ccc(C#N)c(F)c3)cc(N3CCC(N)CC3)c(=O)n2C)cn1 [Example 91, 4-{5-(4-aminopiperidyl)-2-[6-(dimethylamino)(3-pyridyl)]-1-methyl-6-oxo(3-hydropyridyl)}-2-fluorobenzenecarbonitrile] | ≥ 7.00
25 | > 7.00 | > 7.00 | Cc1ccc(-c2c(-c3ccc(C#N)c(F)c3)nc(N3CCC(N)CC3)c(=O)n2C)cn1 [Example 66, 4-[6-(4-Amino-piperidin-1-yl)-4-methyl-3-(6-methyl-pyridin-3-yl)-5-oxo-4,5-dihydro-pyrazin-2-yl]-2-fluoro-benzonitrile] | ≥ 7.00
